Assay results as given in article PMC4501319, “Discovery of Selective Small-Molecule Activators of a Bacterial Glycoside Hydrolase” (Angewandte Chemie (International Ed. in English), 2014).
Several values for one entry are separate records, joined by “and”; a condition that tells them apart may be missing. Equal entries are not always repeated.

How the values were obtained:
[1] = target: T1, BtGH84 (Bacteroides thetaiotaomicron, UniProt Q89ZI2); assay: 4MU-GlcNAc cleavage assay (fluorescent kinetic enzyme activity assay); assay type: biochemical; conditions: for Vmax(app): Michaelis–Menten fit, 1 % DMSO, substrate 50 μM to 2 mM, activator concentration 2 mM; for Kd: affinity of activator to the substrate-bound enzyme, read-out: αKA; for Vmax / α / β: non-essential activator equation fit to covariation experiments; for Vmax: activator 50 µM to 2 mM; for α: modifies KM; for β: modifies Vmax/kcat; for Emax: read-out: Maximum activation
T1 construct: made in house
Description: AC50 measurements of fragment activators were performed using a fluorescent kinetic assay. Assays were carried out in a 96 well plate (Black Nunc F96 MicroWell Plates) at 25°C in a total volume of 100 μl per well, buffer (50 mM MES pH 6.5, 200 mM NaCl, 0.01% Tween-20, 1% DMSO) with 500 μM 4-methylumbelliferyl-β-D-GlcNAc (4MU-GlcNAc), as substrate and 50 nM BtGH84. Reactions were initiated by addition of 10 μl of substrate, to a final concentration of 500 μM, followed by 5 s of shaking. Fluorescent 4-methylumbelliferyl release was recorded continuously at 355 nm excitation and 460 nm emission for 20 s using a BMG PolarStar Optima plate reader. Rates were calculated using Sigmaplot as the slope of the curve of the collected data. Corrections were made to the detected gradients to adjust for the inner filter effect of 4MU-GlcNAc and convert the gradients into units of μmol min-1 according to a standard curve of 4MU. […]
Kinetic experiments using 4MU-GlcNAc were carried out in an analogous manner except that reactions were initiated by a 10 μl injection of BtGH84, to a final concentration of 50 nM, in a well containing the substrate at the desired concentration. Values quoted throughout are mean and standard deviation of three independent […]
Apparent KM and Vmax values were calculated from a Michalis-Menten curve fit to 8-10 point substrate titrations at a constant concentration of the activator. The covariation experiments used the same range of substrate concentrations across an activator concentration range of 50 µM to 2 mM. The data obtained from these experiments was fit to the nonessential activator equation: […]
Here, [S] is the concentration of the […], [A] the concentration of the activator, α modifies KM, β modifies Vmax and KA is the half-max concentration of the activator. […]

[2] = Aqueous solubility; assay type: physicochemical
[3] = target: T1, BtGH84; assay: Affinity by NMR spectroscopy using proton relaxation rates R2; assay type: binding
Description: (§1) Compounds in the fragment library were purchased from Specs, additional structural neighbours were purchased from Specs and Enamine. O-(2-Acetamido-2-deoxy-D-glucopyranosylidene) amino-Z-N-phenylcarbamate (PUGNAc) was purchased from Tocris Bioscience.
(§2) The fragment library was assembled as described by Schulz et al.[1] and dissolved in DMSO-d6 to a concentration of 200 mM and quality controlled using 1H NMR spectroscopy. Instant JChem 5.3.8, 2010, ChemAxon (http://www.chemaxon.com), was used for structure database management.
(§3) NMR spectroscopy and fragment screening
(§4) NMR experiments were carried out on a Bruker Avance II 700 MHz NMR spectrometer equipped with a triple resonance probe and z axis gradients. Data were processed using Topspin 3.2 software. Three NMR experiments were used for the screening, STD NMR,[2] PO-WaterLOGSY,[3] and T1ρ-filtered[4] 1H NMR experiments. […] The experiments were recorded using the standard STD NMR pulse sequence with a 15 ms 6 kHz spin-lock pulse to reduce the background protein resonances and excitation sculpting to suppress the water resonance. […]
Figure S3. Dissociation constant of 2 for BtGH84 determined in the presence of PUGNAc with 1H R2 relaxation rates. […]

[4] = test system: β-N-Acetylglucosaminidase from Canavalia ensiformis (Jack bean); assay: 4MU-GlcNAc substrate titration with commercially available β-N-acetylglucosaminidase; assay type: biochemical; conditions: 4MU-GlcNAc substrate titration at pH 4.9 and pH 6.5
From the text: Figure S8: Effect of activators 2 and 4 on a β-N-Acetylglucosaminidase from Canavalia ensiformis (Jack
(B) titration at the same pH as used for the BtGH84 studies (pH 6.5).
Enzyme supplied by Sigma (purified from native source).
(1 picture or pasted object on this page, not shown here)

[5] = target: T1, BtGH84; assay: STD NMR competition between activators; assay type: binding; conditions: in the presence of 2 (25 mM) as competitor
Description: as §1, §2, §3
as §4, with “experiments. All NMR screening data were collected at 288K and the samples contained 20 μM BtGH84, fragments at a concentration of approximately 200 μM per compound and 20 μM of TSP in 25 mM phosphate buffer containing 150 mM NaCl and 10% D2O at pH 7.4.” for “experiments.”

[6] = titration of activator from 50 μM to 2 mM, substrate concentration 500 μM

T1 sequence (Q89ZI2 22-737, change not shown): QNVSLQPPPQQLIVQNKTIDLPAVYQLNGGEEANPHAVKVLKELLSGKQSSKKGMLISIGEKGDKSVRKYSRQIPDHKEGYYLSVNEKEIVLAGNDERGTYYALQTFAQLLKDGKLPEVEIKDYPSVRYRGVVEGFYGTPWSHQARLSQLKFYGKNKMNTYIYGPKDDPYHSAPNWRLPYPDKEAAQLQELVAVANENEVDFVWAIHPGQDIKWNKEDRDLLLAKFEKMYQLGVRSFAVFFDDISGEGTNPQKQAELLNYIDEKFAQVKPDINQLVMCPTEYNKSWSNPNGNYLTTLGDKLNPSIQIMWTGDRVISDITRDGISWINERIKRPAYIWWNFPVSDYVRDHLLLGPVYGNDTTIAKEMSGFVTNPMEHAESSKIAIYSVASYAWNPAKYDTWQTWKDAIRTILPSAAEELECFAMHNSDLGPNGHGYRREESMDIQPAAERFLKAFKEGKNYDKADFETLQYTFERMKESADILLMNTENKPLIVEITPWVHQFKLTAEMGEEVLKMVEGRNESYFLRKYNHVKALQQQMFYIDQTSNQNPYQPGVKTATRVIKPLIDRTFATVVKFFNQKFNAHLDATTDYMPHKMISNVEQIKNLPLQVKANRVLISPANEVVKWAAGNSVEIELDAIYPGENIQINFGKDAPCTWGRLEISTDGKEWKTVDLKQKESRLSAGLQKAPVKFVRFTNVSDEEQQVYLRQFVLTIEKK

Row | Compound | Vmax(app) [1] | Kd ([1]; covariation experiments) | βkcat ([1]; covariation experiments) | Vmax [1] | α [1] | β [1] | AC50 [1, 6] | Emax [1, 6] | aqueous solubility ([2]; compared to the original activator 2) | highest concentration attainable at 1% DMSO ([2]; enzyme assay buffer, 1% DMSO) | AC50 ([1]; activation, 4MU-GlcNAc substrate concentration 500 μM) | affinity for BtGH84 ([3]; in the absence of PUGNAc, compared with presence of PUGNAc) | Kd ([3]; in the presence of PUGNAc (200 μM), 8 μM BtGH84, 298 K) | activation of β-N-acetylglucosaminidase [4] | saturation transfer (STD NMR signal) from BtGH84 to activator [5] | enhancement of substrate binding in the presence of the activator ([1]; from α, covariation experiments) | increase of kcat in the presence of the activator ([1]; from β, covariation experiments)
1 | CCOc1ncnc2sc(C)c(C)c12 [Compound 3] | 0.022 ± 0.001 µmol/min | 1090 µM | 88.7 s⁻¹ | 0.019 ± 0.0007 µmol/min | 0.061 ± 0.04 | 1.4 ± 0.1 | 575 ± 78 µM | 284% | poor | 2 mM | – | – | – | – | – | – | –
2 | CCOc1ncnc2ccccc12 [Compound 2, 4-ethoxyquinazoline] | – | – | – | – | – | – | – | – | – | – | 3500 µM and ~3500 µM | weaker | 3100 ± 700 µM | do not increase the activity | – | – | –
3 | CCc1cc2c(N3CCOCC3)ncnc2s1 [Compound 5] | 0.024 ± 0.001 µmol/min | ~200 µM and 205 µM | 75.8 s⁻¹ | 0.018 ± 0.0008 µmol/min | 0.17 ± 0.02 | 1.3 ± 0.07 | 274 ± 12 µM | 329% | – | – | – | – | – | – | clear loss in signal intensity | – | –
4 | c1nc(N2CCOCC2)c2ccsc2n1 [Compound 6] | 0.015 ± 0.002 µmol/min | – | – | – | – | – | 702 ± 85 µM | 234% | – | – | – | – | – | – | – | – | –
5 | Cc1sc2ncnc(N3CCOCC3)c2c1C [Compound 4] | 0.026 ± 0.002 µmol/min | ~200 µM and 224 µM | 100 s⁻¹ | 0.018 ± 0.002 µmol/min | 0.14 and 0.14 ± 0.02 | 1.7 and 1.7 ± 0.1 | 259 ± 24 µM | 371% | – | – | – | – | – | do not increase the activity | significantly diminished | ~7 fold | 1.7 fold
